In patent publication US11505558B1, “Antiviral heterocyclic compounds” (Enanta Pharmaceuticals, Inc., priority 2019, dated 2022):
pEC50: −log10 of the molar value.

System: genotype A, "Long" strain RSV
Test: RSV-A assay (CPE, ATPlite readout in Hep-2 cells)
Format: cell-based
Conditions: human respiratory syncytial virus, HEp-2, Hep-2 cells, genotype A "Long" strain RSV, MOI 0.1; read-out: Human RSV-A (“Long” strain) EC50
In short: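 Protection from RSV-induced cytopathic effect, measured as ATPlite luminescence after 5 days, gave EC50 values. Assay used genotype A Long strain at MOI 0.1 on Hep-2 cells seeded at 8,000/well in DMEM growth media with 10% FBS; compounds tested as 2-fold dilutions in duplicate.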

pEC50	SMILES
> 6.70	Cc1ccc(-c2nc([C@@](O)(CNC(=O)c3cc(OC4CC4)c4ncccc4c3)C(F)(F)F)cc3c2OC[C@]3(C)C(N)=O)cc1 [Example 283]
> 6.70	CNC(=O)[C@@]1(C)COc2c1cc([C@@](O)(CNC(=O)c1cc(NC(N)=O)c3ncccc3c1)C(F)(F)F)nc2-c1ccc(F)cc1 [Example 284]
> 6.70	C[C@]1(C(N)=O)COc2c1cc([C@@](O)(CNC(=O)c1cc(OCC(F)F)c3ncccc3c1)C(F)(F)F)nc2-c1ccc(F)cc1 [Example 285]
< 6.70	CO[C@@H](C)COc1cc(C(=O)NC[C@](O)(c2cc3c(c(-c4ccc(F)cc4)n2)OC[C@]3(C)C(N)=O)C(F)(F)F)cc2cccnc12 [Example 286]
> 6.70	C[C@]1(C(N)=O)COc2c1cc([C@@](O)(CNC(=O)c1ccc3nc[nH]c3c1)C(F)(F)F)nc2-c1ccc(F)cc1 [Example 291]
> 6.70	C[C@]1(C(N)=O)COc2c1cc([C@@](O)(CNC(=O)c1ccc(F)c(OC3CC3)c1)C(F)(F)F)nc2-c1ccc(F)cc1 [Example 294]
< 6.70	CCOc1ccc2[nH]c(C(=O)NC[C@](O)(c3cc4c(c(-c5ccc(F)cc5)n3)OC[C@]4(C)C(N)=O)C(F)(F)F)cc2c1 [Example 297]
> 6.70	Cn1ncc2ccc(C(=O)NC[C@](O)(c3cc4c(c(-c5ccc(F)cc5)n3)OC[C@]4(C)C(N)=O)C(F)(F)F)cc21 [Example 300]
< 6.70	C[C@]1(C(N)=O)COc2c1cc([C@@](O)(CNC(=O)c1nc3cccnc3[nH]1)C(F)(F)F)nc2-c1ccc(F)cc1 [Example 302]
> 6.70	C[C@]1(C(N)=O)COc2c1cc([C@@](O)(CNC(=O)c1cc3cccnc3[nH]1)C(F)(F)F)nc2-c1ccc(F)cc1 [Example 303]
< 6.70	C[C@]1(C(N)=O)COc2c1cc([C@@](O)(CNC(=O)c1ccccc1)C(F)(F)F)nc2-c1ccc(F)cc1 [Example 308]
< 6.70	COc1cccc(C(=O)NC[C@](O)(c2cc3c(c(-c4ccc(F)cc4)n2)OC[C@]3(C)C(N)=O)C(F)(F)F)c1 [Example 309]
> 6.70	COc1cc(C(=O)NC[C@](O)(c2cc3c(c(-c4ccc(F)cc4)n2)OC[C@]3(C)C(N)=O)C(F)(F)F)ccc1O [Example 310]
> 6.70	C[C@]1(C(N)=O)COc2c1cc([C@@](O)(CNC(=O)c1ccc3[nH]ccc3c1)C(F)(F)F)nc2-c1ccc(F)cc1 [Example 311]
> 6.70	COc1nc2ccc(C(=O)NC[C@](O)(c3cc4c(c(-c5ccc(F)cc5)n3)OC[C@]4(C)C(N)=O)C(F)(F)F)cc2s1 [Example 312]
< 6.70	COc1cc(C(=O)NC[C@](O)(c2cc3c(c(-c4ccc(F)cc4)n2)OC[C@]3(C)C(N)=O)C(F)(F)F)ccc1F [Example 316]

pEC50	SMILES
< 6.70	COc1cc(C(=O)NC[C@](O)(c2cc3c(c(-c4ccc(F)cc4)n2)OC[C@@]3(C)C(N)=O)C(F)(F)F)ccc1OCCF [Example 317]
< 6.70	C[C@]1(C(N)=O)COc2c1cc([C@@](O)(CNC(=O)c1ccc3ncc(=O)[nH]c3c1)C(F)(F)F)nc2-c1ccc(F)cc1 [Example 327]
> 6.70	COc1ccc(C(=O)NC[C@](O)(c2cc3c(c(-c4ccc(F)cc4)n2)OC[C@]3(C)C(N)=O)C(F)(F)F)cc1Cl [Example 330]
< 6.70	Cn1cnc2cc(C(=O)NC[C@](O)(c3cc4c(c(-c5ccc(F)cc5)n3)OC[C@]4(C)C(N)=O)C(F)(F)F)ccc21 [Example 333]
< 6.70	Cn1cnc2ccc(C(=O)NC[C@](O)(c3cc4c(c(-c5ccc(F)cc5)n3)OC[C@]4(C)C(N)=O)C(F)(F)F)cc21 [Example 334]
> 6.70	C[C@]1(C(N)=O)COc2c1cc([C@@](O)(CNC(=O)c1cc(Nc3ccccn3)c3ncccc3c1)C(F)(F)F)nc2-c1ccc(F)cc1 [Example 338]
> 6.70	C[C@]1(C(N)=O)COc2c1cc([C@@](O)(CNC(=O)c1cc(Nc3ccncn3)c3ncccc3c1)C(F)(F)F)nc2-c1ccc(F)cc1 [Example 343]
> 6.70	Cc1cc(C)nc(Nc2cc(C(=O)NC[C@](O)(c3cc4c(c(-c5ccc(F)cc5)n3)OC[C@]4(C)C(N)=O)C(F)(F)F)cc3cccnc23)n1 [Example 344]
< 6.70	COc1cc(Nc2cc(C(=O)NC[C@](O)(c3cc4c(c(-c5ccc(F)cc5)n3)OC[C@]4(C)C(N)=O)C(F)(F)F)cc3cccnc23)nc(OC)n1 [Example 345]
> 6.70	Cc1cnc2c(Nc3ncccn3)cc(C(=O)NC[C@](O)(c3cc4c(c(-c5ccc(F)cc5)n3)OC[C@]4(C)C(N)=O)C(F)(F)F)cc2c1 [Example 346]
> 6.70	C[C@]1(C(N)=O)COc2c1cc([C@@](O)(CNC(=O)c1cc(Nc3cccnn3)c3ncccc3c1)C(F)(F)F)nc2-c1ccc(F)cc1 [Example 347]
> 6.70	C[C@]1(C(N)=O)COc2c1cc([C@@](O)(CNC(=O)c1cc(Nc3ccnnc3)c3ncccc3c1)C(F)(F)F)nc2-c1ccc(F)cc1 [Example 348]
> 6.70	C[C@]1(C(N)=O)COc2c1cc([C@@](O)(CNC(=O)c1cc(Nc3ncc(F)cn3)c3ncccc3c1)C(F)(F)F)nc2-c1ccc(F)cc1 [Example 349]
> 6.70	C[C@]1(C(N)=O)COc2c1cc([C@@](O)(CNC(=O)c1cc(-c3ccncc3)c3ncccc3c1)C(F)(F)F)nc2-c1ccc(F)cc1 [Example 351]
> 6.70	C[C@]1(C(N)=O)COc2c1cc([C@@](O)(CNC(=O)c1cc(-c3cnc(N)nc3)c3ncccc3c1)C(F)(F)F)nc2-c1ccc(F)cc1 [Example 352]

The next lines start with the molecule.

SMILES	pEC50
C[C@]1(C(N)=O)COc2c1cc([C@@](O)(CNC(=O)c1cc3cncnc3[nH]1)C(F)(F)F)nc2-c1ccc(F)cc1 [Example 292]	< 6.70
C[C@]1(C(N)=O)COc2c1cc([C@@](O)(CNC(=O)c1n[nH]c3ccncc13)C(F)(F)F)nc2-c1ccc(F)cc1 [Example 293]	< 6.70
C[C@]1(C(N)=O)COc2c1cc([C@@](O)(CNC(=O)c1cc(C(N)=O)ccn1)C(F)(F)F)nc2-c1ccc(F)cc1 [Example 295]	< 6.70
C[C@]1(C(N)=O)COc2c1cc([C@@](O)(CNC(=O)c1cncc(C(N)=O)c1)C(F)(F)F)nc2-c1ccc(F)cc1 [Example 296]	< 6.70
C[C@]1(C(N)=O)COc2c1cc([C@@](O)(CNC(=O)c1cncnc1)C(F)(F)F)nc2-c1ccc(F)cc1 [Example 298]	< 6.70
C[C@]1(C(N)=O)COc2c1cc([C@@](O)(CNC(=O)c1cnccn1)C(F)(F)F)nc2-c1ccc(F)cc1 [Example 299]	< 6.70
C[C@]1(C(N)=O)COc2c1cc([C@@](O)(CNC(=O)c1ccnc(C(F)(F)F)n1)C(F)(F)F)nc2-c1ccc(F)cc1 [Example 301]	< 6.70
COc1ccc2cc(C(=O)NC[C@](O)(c3cc4c(c(-c5ccc(F)cc5)n3)OC[C@]4(C)C(N)=O)C(F)(F)F)[nH]c2c1 [Example 304]	> 6.70
COc1cncc(C(=O)NC[C@](O)(c2cc3c(c(-c4ccc(F)cc4)n2)OC[C@]3(C)C(N)=O)C(F)(F)F)c1 [Example 305]	< 6.70
C[C@]1(C(N)=O)COc2c1cc([C@@](O)(CNC(=O)c1ccc3cc[nH]c3n1)C(F)(F)F)nc2-c1ccc(F)cc1 [Example 306]	< 6.70
C[C@]1(C(N)=O)COc2c1cc([C@@](O)(CNC(=O)c1cn3ncccc3n1)C(F)(F)F)nc2-c1ccc(F)cc1 [Example 307]	< 6.70
C[C@]1(C(N)=O)COc2c1cc([C@@](O)(CNC(=O)c1ccc3c(c1)NC(=O)CO3)C(F)(F)F)nc2-c1ccc(F)cc1 [Example 313]	< 6.70
C[C@]1(C(N)=O)COc2c1cc([C@@](O)(CNC(=O)c1ccc3nc(C(F)(F)F)sc3c1)C(F)(F)F)nc2-c1ccc(F)cc1 [Example 314]	> 6.70
Cn1nnc2cc(C(=O)NC[C@](O)(c3cc4c(c(-c5ccc(F)cc5)n3)OC[C@]4(C)C(N)=O)C(F)(F)F)ccc21 [Example 315]	< 6.70
COc1cc(C(=O)NC[C@](O)(c2cc3c(c(-c4ccc(F)cc4)n2)OC[C@]3(C)C(N)=O)C(F)(F)F)ccc1C#N [Example 318]	< 6.70
COc1ccc(C(=O)NC[C@](O)(c2cc3c(c(-c4ccc(F)cc4)n2)OC[C@]3(C)C(N)=O)C(F)(F)F)cc1C#N [Example 319]	> 6.70
C[C@]1(C(N)=O)COc2c1cc([C@@](O)(CNC(=O)c1ccc(C#N)c(F)c1)C(F)(F)F)nc2-c1ccc(F)cc1 [Example 320]	< 6.70
C[C@]1(C(N)=O)COc2c1cc([C@@](O)(CNC(=O)c1ccc3[nH]c(=O)[nH]c3c1)C(F)(F)F)nc2-c1ccc(F)cc1 [Example 321]	< 6.70
Cn1c(=O)n(C)c2cc(C(=O)NC[C@](O)(c3cc4c(c(-c5ccc(F)cc5)n3)OC[C@]4(C)C(N)=O)C(F)(F)F)ccc21 [Example 322]	< 6.70
C[C@]1(C(N)=O)COc2c1cc([C@@](O)(CNC(=O)c1ccc3oc(=O)[nH]c3c1)C(F)(F)F)nc2-c1ccc(F)cc1 [Example 323]	< 6.70
C[C@]1(C(N)=O)COc2c1cc([C@@](O)(CNC(=O)c1ccc(F)c(C#N)c1)C(F)(F)F)nc2-c1ccc(F)cc1 [Example 324]	< 6.70
Cn1c(=O)[nH]c2cc(C(=O)NC[C@](O)(c3cc4c(c(-c5ccc(F)cc5)n3)OC[C@]4(C)C(N)=O)C(F)(F)F)ccc21 [Example 325]	< 6.70
Cn1c(=O)[nH]c2ccc(C(=O)NC[C@](O)(c3cc4c(c(-c5ccc(F)cc5)n3)OC[C@]4(C)C(N)=O)C(F)(F)F)cc21 [Example 326]	< 6.70
Cn1c(=O)oc2ccc(C(=O)NC[C@](O)(c3cc4c(c(-c5ccc(F)cc5)n3)OC[C@]4(C)C(N)=O)C(F)(F)F)cc21 [Example 328]	< 6.70
COc1cc(C(=O)NC[C@](O)(C2=CC3C(OC[C@]3(C)C(N)=O)C(c3ccc(F)cc3)=N2)C(F)(F)F)ccc1Cl (stereo partly shown) [Example 329]	> 6.70
COc1ccc2c(C(=O)NC[C@](O)(c3cc4c(c(-c5ccc(F)cc5)n3)OC[C@]4(C)C(N)=O)C(F)(F)F)n[nH]c2c1 [Example 331]	< 6.70
COc1cc(OC)c2cc(C(=O)NC[C@](O)(c3cc4c(c(-c5ccc(F)cc5)n3)OC[C@]4(C)C(N)=O)C(F)(F)F)[nH]c2c1 [Example 332]	> 6.70
